We go through 1 compound from patent US20230218723A1, “COMPOSITIONS AND METHODS FOR USING SILK-ELASTINLIKE PROTEIN-BASED POLYMERS” (University of Utah Research Foundation, priority 2019, published 2023).

Data set [1] is described as follows: ICG fluorescence imaging, IVIS and clinical endoscope. In kind it is physicochemical. The method, then: A Karl Storz 4 mm×18 cm ICG endoscope (Karl Storz, Tuttlingen, Germany) attached with a Power LED light source with fiber optic ICG cable and Karl Storz Image is Video System with ICG High Def Camera Head (Karl Storz, Tuttlingen, Germany) was used for imaging the ICG at different concentrations. ICG solution was prepared by mixing 25 mg of ICG in 1 mL of water, resulting in a 25 mg/mL solution. The solution was diluted by half in subsequent wells of a 96-well plate, and the last well was filled with only water (negative control). The endoscope's imaging head was held 4 mm above the surface of the 96-well plate to acquire images. Fluorescent light was captured by the camera and shown as blue. The intensity of the fluorescent light was quantified using the Zen Lite Blue software version 2.6 (Zeiss, Oberkochen, Germany). A fixed area of equal size for each well was selected, and the fluorescence was quantified by taking the arithmetic mean intensity of blue contribution for that particular region in pixels. IVIS was used to image ICG at different concentrations. […] An overlay image combination of photographic and fluorescent image was recorded. The region of interest (ROI) tool was used to perform quantification of the surface intensities. Equal size ROIs were drawn on each well of the plate, and the radiant efficiency was recorded by the software for each defined ROI. […]

Data set [2] relates to L-929 fibroblasts. The data set is described as follows: Cytotoxicity of ICG and SELP-ICG, CCK-8, L-929. In kind it is cell-based, murine. The note with it: L929 cells, 24 hrs, as ICG concentration. The text has this: (§1) L-929 and HUVEC were selected for use in assessing the cytotoxicity of the SELP-ICG embolic based upon their utility with respect to regulatory testing and relevance to the intended application of the device. L-929 cells are commonly used for FDA testing of contact cytotoxicity of medical devices, such as embolics. HUVEC represents a human cell line, another common cell that is also frequently used for evaluating cytotoxicity. Additionally, HUVEC represents vascular endothelial cells that embolic SELP will be in close contact with during in vivo administration. L-929 fibroblasts were grown with Dulbecco's Modified Eagle Medium (DMEM):F12 (1:1) media, supplemented with 10% FBS, and HUVECs were grown in ECGM. The cells were grown in T-75 flasks at 37° C. with 5% CO2 and passaged at 80-95% confluency. Cells were suspended using TrypLE™ Express Enzyme with no phenol red according to the manufactures protocol. The viability of cells was assessed using 0.4% trypan blue stain using a Countess Automated Cell Counter (ThermoFisher Scientific, Waltham, Mass.). L-929 cells were seeded into new T-75 flasks with 3×10^5 to 6×10^5 viable cells. […] Viability was measured after 24 hrs using a Cell Counting Kit (CCK)-8 assay kit (Dojindo, Kumamoto, Japan). […] LD50 values were determined by fitting the data to a Hill plot with a variable slope using GraphPad Prism 5.0.

The subject of data set [3] is HUVEC. Description: Cytotoxicity of ICG and SELP-ICG, CCK-8, HUVEC. In kind it is cell-based, human. The conditions noted are these: 24 hrs, as ICG concentration.
Description: as §1

For data set [4] the following is noted: cited from earlier work.

One may read the half-life as how long it takes for the measured level to halve. For the compound `CC1(C)C(/C=C/C=C/C=C/C=C2\N(CCCCS(=O)(=O)O)c3ccc4ccccc4c3C2(C)C)=[N+](CCCCS(=O)(=O)[O-])c2ccc3ccccc3c21` [ICG, Indocyanine green], the “optimal concentration for fluorescence” value in data set [1] (IVIS and Karl Storz ICG endoscope) turned out to be 0.012 mg/mL. The “concentration above which self-quenching occurs” value in data set [1] (image analysis) was “higher than 0.012 mg/mL”. Moreover, the LD50 in data set [2] was 0.28 ± 0.14 mg/mL; in data set [3], 0.068 ± 0.009 mg/mL. The half-life in data set [4] (clearance from the bloodstream after intravenous administration) is 3 to 5 min. Moreover, in data set [4] (intravenous administration), the “share of the dose remaining within the tumor by the time of surgery” value is given as “approximately 0.05%”.
